According to ChEMBL document CHEMBL1201862, “PubChem BioAssay data set” (2004):
Activity calls are given as the source filed them.

Columns and labels:
[1] = biological target: Multidrug resistance protein CDR1 (Candida albicans, UniProt P43071); experiment: CaCDR1 efflux pump inhibitors in yeast, dose response, S. cerevisiae AD1-8u, singleplex, Cherry Pick1 hits (AID 588606); format: functional
[2] = nonselective inhibitors of cellular cAMP signaling, dose response, counter-screen for MC4R biased antagonist project, cell-based, TR-FRET cAMP detection (AID 602305); format: functional;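 also: U2OS cells stimulated with forskolin near its EC80 as the cAMP inducer; potency is for inhibition of forskolin-stimulated cAMP signaling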
[3] = cytotoxicity toward NIH3T3 fibroblasts, dose response, counter-screen, cell-based, ATP luminescence, mouse fibroblasts (AID 2010); format: functional;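 also: cells exposed to compound for about 90 hours before reading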
[4] = inhibitors of intracellular T. cruzi replication, confirmation, NIH3T3 host cells, beta-gal luminescence (AID 2044); format: functional, cell-based;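 also: intracellular parasites grown in NIH/3T3 mouse fibroblasts as host cells; luminescent beta-galactosidase reporter signal from transgenic T. cruzi replicating inside host cells; inhibitors lower the luminescence signal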
[5] = biological target: Melanocortin receptor 4 (Homo sapiens, UniProt P32245); experiment: MC4R antagonist potency on cAMP, dose response, cell-based, TR-FRET, biased antagonists (AID 602298); format: functional;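 also: antagonist potency against agonist-stimulated cAMP production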
[6] = biological target: T1, Sentrin-specific protease 7 (Homo sapiens, UniProt Q9BQF6); experiment: SENP7 protease inhibitors, SAR follow-up, biochemical, luminescence (AID 504497); format: functional
T1 sequence (Q9BQF6 whole entry): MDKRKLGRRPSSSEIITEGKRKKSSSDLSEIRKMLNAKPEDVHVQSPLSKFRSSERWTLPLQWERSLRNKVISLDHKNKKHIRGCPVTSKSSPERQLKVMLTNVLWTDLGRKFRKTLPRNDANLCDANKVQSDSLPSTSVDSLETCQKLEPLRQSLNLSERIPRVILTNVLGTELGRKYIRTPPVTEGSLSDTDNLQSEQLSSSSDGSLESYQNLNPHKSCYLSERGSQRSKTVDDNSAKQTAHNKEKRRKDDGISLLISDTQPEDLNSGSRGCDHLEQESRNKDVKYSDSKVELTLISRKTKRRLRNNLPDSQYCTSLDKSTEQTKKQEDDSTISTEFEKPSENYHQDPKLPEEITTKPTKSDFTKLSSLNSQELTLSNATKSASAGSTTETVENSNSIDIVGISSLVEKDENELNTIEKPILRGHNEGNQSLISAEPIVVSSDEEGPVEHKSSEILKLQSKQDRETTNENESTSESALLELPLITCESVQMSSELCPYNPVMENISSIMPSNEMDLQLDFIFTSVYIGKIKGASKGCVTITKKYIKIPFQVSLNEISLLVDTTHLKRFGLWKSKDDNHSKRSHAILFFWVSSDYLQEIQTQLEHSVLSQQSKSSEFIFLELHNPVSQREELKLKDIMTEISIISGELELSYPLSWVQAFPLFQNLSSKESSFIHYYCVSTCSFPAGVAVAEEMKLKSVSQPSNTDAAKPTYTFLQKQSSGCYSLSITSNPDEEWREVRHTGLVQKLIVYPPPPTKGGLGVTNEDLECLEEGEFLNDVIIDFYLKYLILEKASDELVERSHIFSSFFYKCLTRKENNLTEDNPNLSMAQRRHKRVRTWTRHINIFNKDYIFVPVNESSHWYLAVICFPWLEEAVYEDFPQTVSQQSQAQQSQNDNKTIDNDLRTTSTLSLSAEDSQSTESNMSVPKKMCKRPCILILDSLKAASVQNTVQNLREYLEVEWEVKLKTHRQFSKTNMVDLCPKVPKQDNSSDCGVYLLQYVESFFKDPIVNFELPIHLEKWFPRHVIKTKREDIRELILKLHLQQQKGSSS

[7] = biological target: T2, Caspase-3 (Homo sapiens, UniProt P42574); experiment: SAR Analysis of small molecule inhibitors of Sentrin-specific proteases (SENPs) using a Caspase-3 Selectivity assay. [Related pubchem assays (depositor defined):AID2540, AID2599, AID434973, AID489001]; format: functional
T2 sequence (P42574 whole entry): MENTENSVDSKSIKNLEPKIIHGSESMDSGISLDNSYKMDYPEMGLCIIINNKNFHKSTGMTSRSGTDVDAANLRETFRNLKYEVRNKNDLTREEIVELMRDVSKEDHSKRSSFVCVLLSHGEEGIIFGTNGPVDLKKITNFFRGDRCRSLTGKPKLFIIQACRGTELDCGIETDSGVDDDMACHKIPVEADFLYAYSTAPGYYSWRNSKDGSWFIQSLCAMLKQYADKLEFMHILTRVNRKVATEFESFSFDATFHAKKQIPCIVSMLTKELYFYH

[8] = biological target: T3, Sentrin-specific protease 6 (Homo sapiens, UniProt Q9GZR1); experiment: SAR Analysis of small molecule inhibitors of Sentrin-specific protease 6 (SENP6) using a Luminescent assay. [Related pubchem assays (depositor defined):AID2582, AID2599]; format: functional
T3 sequence (Q9GZR1 whole entry): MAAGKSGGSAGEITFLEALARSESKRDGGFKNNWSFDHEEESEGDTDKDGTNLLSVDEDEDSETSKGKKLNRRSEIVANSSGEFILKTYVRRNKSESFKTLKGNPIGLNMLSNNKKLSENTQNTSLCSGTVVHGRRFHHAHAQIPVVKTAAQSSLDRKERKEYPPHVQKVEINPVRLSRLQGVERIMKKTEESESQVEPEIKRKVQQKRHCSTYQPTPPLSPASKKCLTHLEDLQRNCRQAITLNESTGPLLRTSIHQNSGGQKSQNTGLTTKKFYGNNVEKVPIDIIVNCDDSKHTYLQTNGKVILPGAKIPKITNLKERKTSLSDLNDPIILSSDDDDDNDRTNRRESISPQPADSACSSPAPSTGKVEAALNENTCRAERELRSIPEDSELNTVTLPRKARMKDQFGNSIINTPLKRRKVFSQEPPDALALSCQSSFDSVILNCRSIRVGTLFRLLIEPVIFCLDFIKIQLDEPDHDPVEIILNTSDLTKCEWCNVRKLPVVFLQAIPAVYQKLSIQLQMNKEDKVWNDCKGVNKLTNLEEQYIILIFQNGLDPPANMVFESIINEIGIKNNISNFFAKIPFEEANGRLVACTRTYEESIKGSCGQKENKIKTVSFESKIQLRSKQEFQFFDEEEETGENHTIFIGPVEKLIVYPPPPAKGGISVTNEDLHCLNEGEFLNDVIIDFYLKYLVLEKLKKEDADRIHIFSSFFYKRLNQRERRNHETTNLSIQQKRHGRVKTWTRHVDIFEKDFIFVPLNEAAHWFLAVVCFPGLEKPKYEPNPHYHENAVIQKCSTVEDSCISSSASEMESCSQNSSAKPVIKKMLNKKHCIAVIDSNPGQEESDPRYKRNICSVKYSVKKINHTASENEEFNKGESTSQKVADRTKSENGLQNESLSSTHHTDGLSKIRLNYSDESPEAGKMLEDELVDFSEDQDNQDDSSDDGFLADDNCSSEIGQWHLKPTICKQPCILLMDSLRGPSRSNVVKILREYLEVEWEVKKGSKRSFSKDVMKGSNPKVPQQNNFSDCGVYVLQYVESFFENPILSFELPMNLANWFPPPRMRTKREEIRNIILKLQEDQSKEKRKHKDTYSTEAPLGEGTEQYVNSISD

[9] = biological target: T4, Sentrin-specific protease 8 (Homo sapiens, UniProt Q96LD8); experiment: SENP8 protease inhibitors, SAR follow-up, biochemical, luminescence (AID 504501); format: functional
T4 sequence (Q96LD8 whole entry): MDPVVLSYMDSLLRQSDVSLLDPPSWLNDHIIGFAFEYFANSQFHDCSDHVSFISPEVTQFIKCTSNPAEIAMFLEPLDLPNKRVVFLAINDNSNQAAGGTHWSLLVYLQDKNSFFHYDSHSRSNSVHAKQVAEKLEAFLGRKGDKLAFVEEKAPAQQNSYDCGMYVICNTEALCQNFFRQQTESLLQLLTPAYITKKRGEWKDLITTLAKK

[10] = biological target: Cyclin-dependent kinase 8 (Homo sapiens, UniProt P49336); experiment: Navigating the Kinome. Panel member name: CDK8; format: functional
[11] = biological target: Dual specificity protein kinase CLK4 (Homo sapiens, UniProt Q9HAZ1); format: functional
[12] = biological target: Tyrosine-protein kinase receptor TYRO3 (Homo sapiens, UniProt Q06418); format: functional;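 also: TYRO3 value obtained as one member of a kinome-wide profiling panel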
[13] = biological target: Dual specificity tyrosine-phosphorylation-regulated kinase 1B (Homo sapiens, UniProt Q9Y463); experiment: Navigating the Kinome. Panel member name: DYRK1B; format: functional
[14] = biological target: Aurora kinase A (Homo sapiens, UniProt O14965); format: functional;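 also: value from the Navigating the Kinome kinase panel profiling, panel entry STK6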
[15] = biological target: Vascular endothelial growth factor receptor 2 (Homo sapiens, UniProt P35968); format: functional
[16] = biological target: Aurora kinase B (Homo sapiens, UniProt Q96GD4); format: functional
Sequence of Aurora kinase B (Q96GD4 whole entry): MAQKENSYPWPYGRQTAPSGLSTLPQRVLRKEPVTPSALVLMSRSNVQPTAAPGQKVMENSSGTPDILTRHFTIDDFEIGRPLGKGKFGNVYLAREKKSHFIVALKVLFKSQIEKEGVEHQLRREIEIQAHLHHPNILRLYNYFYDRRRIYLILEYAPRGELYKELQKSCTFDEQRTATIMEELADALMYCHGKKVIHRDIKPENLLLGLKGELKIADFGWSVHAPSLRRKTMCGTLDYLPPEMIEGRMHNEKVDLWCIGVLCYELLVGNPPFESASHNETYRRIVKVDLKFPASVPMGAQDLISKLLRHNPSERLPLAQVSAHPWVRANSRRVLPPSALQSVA

Sequence of Cyclin-dependent kinase 8 (P49336 whole entry): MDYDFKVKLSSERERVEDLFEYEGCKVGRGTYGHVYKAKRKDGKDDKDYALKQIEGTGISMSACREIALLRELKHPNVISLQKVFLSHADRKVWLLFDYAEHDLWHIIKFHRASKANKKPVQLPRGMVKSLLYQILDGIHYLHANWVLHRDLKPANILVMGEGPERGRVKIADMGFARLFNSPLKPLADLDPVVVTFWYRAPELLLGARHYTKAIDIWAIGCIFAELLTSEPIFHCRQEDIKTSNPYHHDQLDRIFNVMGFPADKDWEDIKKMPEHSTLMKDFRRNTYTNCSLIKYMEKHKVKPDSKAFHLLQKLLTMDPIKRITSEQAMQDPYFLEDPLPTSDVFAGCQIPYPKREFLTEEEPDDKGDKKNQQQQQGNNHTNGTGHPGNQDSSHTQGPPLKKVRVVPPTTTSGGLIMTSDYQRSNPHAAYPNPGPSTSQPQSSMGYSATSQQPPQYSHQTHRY
Sequence of Aurora kinase A (O14965 whole entry): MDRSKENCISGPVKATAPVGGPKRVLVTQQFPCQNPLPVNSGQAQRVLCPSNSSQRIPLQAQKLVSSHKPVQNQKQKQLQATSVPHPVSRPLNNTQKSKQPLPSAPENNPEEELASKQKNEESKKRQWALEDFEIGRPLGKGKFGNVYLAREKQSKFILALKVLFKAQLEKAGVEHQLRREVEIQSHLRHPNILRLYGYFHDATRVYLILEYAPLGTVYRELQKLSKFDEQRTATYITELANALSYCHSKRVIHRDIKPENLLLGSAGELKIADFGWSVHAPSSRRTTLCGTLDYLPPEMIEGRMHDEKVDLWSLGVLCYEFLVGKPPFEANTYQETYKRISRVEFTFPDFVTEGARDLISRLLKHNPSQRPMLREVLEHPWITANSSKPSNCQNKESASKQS
Sequence of Vascular endothelial growth factor receptor 2 (P35968 whole entry): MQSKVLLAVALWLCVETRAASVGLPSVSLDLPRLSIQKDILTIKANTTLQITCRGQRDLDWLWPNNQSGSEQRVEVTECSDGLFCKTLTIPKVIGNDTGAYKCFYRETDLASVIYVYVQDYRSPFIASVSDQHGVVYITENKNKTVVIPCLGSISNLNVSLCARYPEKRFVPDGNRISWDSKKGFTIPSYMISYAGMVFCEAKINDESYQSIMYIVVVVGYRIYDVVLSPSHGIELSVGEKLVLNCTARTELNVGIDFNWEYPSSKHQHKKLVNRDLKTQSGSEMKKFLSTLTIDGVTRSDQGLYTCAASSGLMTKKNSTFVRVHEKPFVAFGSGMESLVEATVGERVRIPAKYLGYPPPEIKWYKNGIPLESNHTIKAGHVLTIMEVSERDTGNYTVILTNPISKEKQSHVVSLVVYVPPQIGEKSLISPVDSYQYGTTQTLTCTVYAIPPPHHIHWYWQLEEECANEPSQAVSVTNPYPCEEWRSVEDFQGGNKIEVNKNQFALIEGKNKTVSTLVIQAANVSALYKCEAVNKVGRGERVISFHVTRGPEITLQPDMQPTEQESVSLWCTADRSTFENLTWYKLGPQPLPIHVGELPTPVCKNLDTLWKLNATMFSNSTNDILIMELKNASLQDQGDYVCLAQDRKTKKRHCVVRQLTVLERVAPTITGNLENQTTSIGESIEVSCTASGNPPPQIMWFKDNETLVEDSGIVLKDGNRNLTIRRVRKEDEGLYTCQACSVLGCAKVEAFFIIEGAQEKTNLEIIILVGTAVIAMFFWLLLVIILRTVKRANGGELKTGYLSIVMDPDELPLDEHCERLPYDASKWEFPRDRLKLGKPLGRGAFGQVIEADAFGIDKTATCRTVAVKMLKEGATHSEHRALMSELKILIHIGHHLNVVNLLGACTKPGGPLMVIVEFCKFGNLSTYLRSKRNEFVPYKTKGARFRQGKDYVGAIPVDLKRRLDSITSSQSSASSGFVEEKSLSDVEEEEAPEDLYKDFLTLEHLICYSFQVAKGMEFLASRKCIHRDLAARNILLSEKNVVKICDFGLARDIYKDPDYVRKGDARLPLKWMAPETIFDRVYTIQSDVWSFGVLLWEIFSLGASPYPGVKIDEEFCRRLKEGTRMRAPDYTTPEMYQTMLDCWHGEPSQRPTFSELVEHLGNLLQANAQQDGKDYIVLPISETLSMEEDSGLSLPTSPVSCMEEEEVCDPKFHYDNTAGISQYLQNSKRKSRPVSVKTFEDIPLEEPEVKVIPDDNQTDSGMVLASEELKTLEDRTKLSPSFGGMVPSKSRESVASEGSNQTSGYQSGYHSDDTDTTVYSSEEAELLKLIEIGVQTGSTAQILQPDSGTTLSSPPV
Sequence of Dual specificity tyrosine-phosphorylation-regulated kinase 1B (Q9Y463 whole entry): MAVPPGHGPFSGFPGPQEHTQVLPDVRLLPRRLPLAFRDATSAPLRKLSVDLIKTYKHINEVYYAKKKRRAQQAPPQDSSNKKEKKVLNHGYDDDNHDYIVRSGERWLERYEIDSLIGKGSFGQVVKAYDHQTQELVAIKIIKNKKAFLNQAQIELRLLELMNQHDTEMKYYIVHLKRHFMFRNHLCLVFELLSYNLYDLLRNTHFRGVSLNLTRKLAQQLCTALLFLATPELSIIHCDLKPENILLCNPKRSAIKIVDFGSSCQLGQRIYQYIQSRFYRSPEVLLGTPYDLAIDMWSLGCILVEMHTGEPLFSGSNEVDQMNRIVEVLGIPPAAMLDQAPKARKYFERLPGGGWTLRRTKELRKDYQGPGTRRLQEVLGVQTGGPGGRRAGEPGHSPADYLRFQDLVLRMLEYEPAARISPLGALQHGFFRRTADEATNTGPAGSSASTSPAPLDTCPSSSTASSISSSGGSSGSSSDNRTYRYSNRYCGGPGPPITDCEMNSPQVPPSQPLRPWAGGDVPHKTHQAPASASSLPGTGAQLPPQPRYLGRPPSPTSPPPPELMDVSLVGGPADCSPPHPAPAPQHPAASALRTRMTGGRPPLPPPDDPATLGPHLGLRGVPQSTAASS
Sequence of Dual specificity protein kinase CLK4 (Q9HAZ1 whole entry): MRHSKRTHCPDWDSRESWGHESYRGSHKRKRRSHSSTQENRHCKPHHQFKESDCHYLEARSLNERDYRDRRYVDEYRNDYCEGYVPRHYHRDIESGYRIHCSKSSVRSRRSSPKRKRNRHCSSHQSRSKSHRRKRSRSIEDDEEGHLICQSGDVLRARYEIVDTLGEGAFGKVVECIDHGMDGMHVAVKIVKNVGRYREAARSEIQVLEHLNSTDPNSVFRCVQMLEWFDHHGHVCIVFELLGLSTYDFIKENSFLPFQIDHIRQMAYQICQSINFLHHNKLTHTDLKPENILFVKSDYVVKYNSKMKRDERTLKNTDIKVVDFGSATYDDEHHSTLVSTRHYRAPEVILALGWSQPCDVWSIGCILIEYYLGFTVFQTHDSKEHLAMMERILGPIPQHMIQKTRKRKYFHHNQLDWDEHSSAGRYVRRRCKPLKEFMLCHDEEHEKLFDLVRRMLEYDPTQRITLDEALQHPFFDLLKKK
Sequence of Melanocortin receptor 4 (P32245 whole entry): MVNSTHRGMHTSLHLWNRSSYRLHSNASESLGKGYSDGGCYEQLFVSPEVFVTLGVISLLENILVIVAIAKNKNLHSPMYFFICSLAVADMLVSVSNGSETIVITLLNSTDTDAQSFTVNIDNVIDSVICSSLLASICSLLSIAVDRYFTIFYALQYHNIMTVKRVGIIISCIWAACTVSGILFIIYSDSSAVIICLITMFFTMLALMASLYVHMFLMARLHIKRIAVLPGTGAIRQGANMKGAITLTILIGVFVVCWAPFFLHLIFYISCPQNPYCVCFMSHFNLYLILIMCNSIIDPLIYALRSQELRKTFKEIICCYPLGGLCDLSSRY
Sequence of Tyrosine-protein kinase receptor TYRO3 (Q06418 whole entry): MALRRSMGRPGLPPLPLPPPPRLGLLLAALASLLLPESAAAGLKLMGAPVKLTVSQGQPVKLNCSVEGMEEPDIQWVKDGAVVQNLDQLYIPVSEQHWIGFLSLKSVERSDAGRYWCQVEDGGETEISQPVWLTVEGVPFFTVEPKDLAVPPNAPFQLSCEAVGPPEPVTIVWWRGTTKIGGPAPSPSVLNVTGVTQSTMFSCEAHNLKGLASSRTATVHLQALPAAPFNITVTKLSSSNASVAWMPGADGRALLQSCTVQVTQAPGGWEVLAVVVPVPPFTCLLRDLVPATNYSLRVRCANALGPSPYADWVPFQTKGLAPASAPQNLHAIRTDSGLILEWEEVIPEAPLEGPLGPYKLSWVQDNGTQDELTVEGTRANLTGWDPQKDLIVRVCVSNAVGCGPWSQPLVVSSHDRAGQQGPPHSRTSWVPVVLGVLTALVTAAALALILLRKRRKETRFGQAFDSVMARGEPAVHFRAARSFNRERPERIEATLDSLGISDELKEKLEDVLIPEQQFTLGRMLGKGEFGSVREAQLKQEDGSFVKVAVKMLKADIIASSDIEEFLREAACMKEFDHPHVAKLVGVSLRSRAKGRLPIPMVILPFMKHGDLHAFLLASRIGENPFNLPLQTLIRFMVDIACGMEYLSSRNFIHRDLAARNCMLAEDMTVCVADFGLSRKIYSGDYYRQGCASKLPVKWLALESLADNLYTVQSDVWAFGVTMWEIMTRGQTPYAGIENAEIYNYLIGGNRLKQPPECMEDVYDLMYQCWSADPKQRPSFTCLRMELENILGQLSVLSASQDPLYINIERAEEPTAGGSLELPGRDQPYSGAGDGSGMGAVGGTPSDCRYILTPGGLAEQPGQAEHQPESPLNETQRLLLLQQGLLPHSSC

CCSc1cc(N2CCOCC2)nc(-c2ccccc2)n1
EC50 [1]: 0.016 µM (active)

N#Cc1c(N2CCN(C(=O)c3ccco3)CC2)nc(-c2ccccc2)c2c1CCCC2
IC50 [2]: > 64.6 µM (inactive) | EC50 [3]: > 60 µM (not active) | EC50 [4]: 2.31 µM (active) | IC50 [5]: > 64.6 µM (inactive)

CCC(C)(C)c1ccc2c(c1)C(=O)c1ccccc1C2=O
IC50 [6]: 1.31 µM (active) | IC50 [7]: 2.88 µM (active) | IC50 [8]: 2.05 µM (active) | IC50 [9]: 2.38 µM (active)

O=C(Nc1cccc2[nH]ncc12)NC1CCc2c1cccc2N1CCCC1 (stereo unspecified)
Ki [10]: 2.51 µM (active) | Ki [11]: 0.794 µM (active)

O=C1NC(=S)N(c2ccccc2)C1=O
Ki [12]: 79.4 µM (active) | Ki [13]: 79.4 µM (active)

COc1ccc(-c2cc(=O)c3c(O)c(OC)c(OC)cc3o2)cc1O [EUPATORIN]
Ki [14]: 1 µM (active) | Ki [15]: 0.794 µM (active) | Ki [16]: 0.0398 µM (active)
